Source: patent publication US8871934B2, “Fluorene compound and pharmaceutical use thereof” (Japan Tobacco Inc., priority 2008, dated 2014)
Where two headings read alike, the source gives them in different places.

Molecular target: human PDHK2 (hPDHK2) (Homo sapiens (Human), UniProt Q15119)
Assay: Inhibitory action of PDHK activity in vitro (kinase reaction, residual PDH activity measured)
Assay type: biochemical
[1] = PDHK inhibitory activity, class symbol of IC50
[2] = read-out: PDHK inhibitory activity IC50

SMILES | IC50 [1] | IC50 [2] | IC50 (class symbol of IC50, read-out: PDHK inhibitory activity)
Cn1cc(-c2cc(OCCN3CCCC3=O)cc3c2-c2ccccc2C3(O)C(F)(F)F)cn1 (stereo not drawn) [compound 412] | < 100 nM | 22 nM | 
CC(Oc1ccc2c(c1)C(O)(C(F)(F)F)c1ccccc1-2)C(=O)O (stereo not drawn) [compound 413] | > 1000 nM | 1230 nM | 
Cn1cc(-c2cc(C(=O)N3CC3)cc3c2-c2ccccc2C3(O)C(F)(F)F)cn1 (stereo not drawn) [compound 414] | < 100 nM | 32 nM | 
CC(=O)NCc1ccc2c(c1)C(O)(C(F)(F)F)c1ccccc1-2 (stereo not drawn) [compound 415] | > 1000 nM | 9190 nM | 
O=C1CCCCN1CCOc1ccc2c(c1)C(O)(C(F)(F)F)c1ccccc1-2 (stereo not drawn) [compound 416] | 100 to 1000 nM | 104 nM | 
CNCc1ccc2c(c1)C(O)(C(F)(F)F)c1ccccc1-2 (stereo not drawn) [compound 417] |  | > 1000 nM | > 1000 nM
CC(=O)N(C)Cc1ccc2c(c1)C(O)(C(F)(F)F)c1ccccc1-2 (stereo not drawn) [compound 418] | > 1000 nM | 6060 nM | 
O=C1CCC(COc2ccc3c(c2)C(O)(C(F)(F)F)c2ccccc2-3)N1 (stereo not drawn) [compound 419] | 100 to 1000 nM | 504 nM | 
CN1C(=O)CCC1COc1ccc2c(c1)C(O)(C(F)(F)F)c1ccccc1-2 (stereo not drawn) [compound 420] | 100 to 1000 nM | 225 nM | 
O=C1CCC(COc2ccc3c(c2)C(O)(C(F)(F)F)c2ccccc2-3)N1CCCO (stereo not drawn) [compound 421] | 100 to 1000 nM | 233 nM | 
CC(=O)N(C)CCOc1cc(-c2cncnc2)c2c(c1)C(O)(C(F)(F)F)c1ccccc1-2 (stereo not drawn) [compound 422] | < 100 nM | 23 nM | 
CC(=O)N(C)CCOc1cc(-c2cnn(C)c2)c2c(c1)C(O)(C(F)(F)F)c1ccccc1-2 (stereo not drawn) [compound 423] | < 100 nM | 21 nM | 
CN(CCOc1cc(-c2cncnc2)c2c(c1)C(O)(C(F)(F)F)c1ccccc1-2)C(=O)CO (stereo not drawn) [compound 424] | < 100 nM | 23 nM | 
CN(CCOc1cc(-c2cnn(C)c2)c2c(c1)C(O)(C(F)(F)F)c1ccccc1-2)C(=O)CO (stereo not drawn) [compound 425] | < 100 nM | 21 nM | 
Cn1cc(-c2cc(OCCCCO)cc3c2-c2ccccc2C3(O)C(F)(F)F)cn1 (stereo not drawn) [compound 426] | < 100 nM | 24 nM | 
CN(C)C(=O)CCCOc1cc(-c2cnn(C)c2)c2c(c1)C(O)(C(F)(F)F)c1ccccc1-2 (stereo not drawn) [compound 427] | < 100 nM | 20 nM | 
OCCCCOc1cc(-c2cncnc2)c2c(c1)C(O)(C(F)(F)F)c1ccccc1-2 (stereo not drawn) [compound 428] | < 100 nM | 25 nM | 
CN(C)C(=O)CCCOc1cc(-c2cncnc2)c2c(c1)C(O)(C(F)(F)F)c1ccccc1-2 (stereo not drawn) [compound 429] | < 100 nM | 19 nM | 
O=C1CCCN1CCOc1cnc2c(c1)C(O)(C(F)(F)F)c1ccccc1-2 (stereo not drawn) [compound 430, 1-[2-(5-hydroxy-5-trifluoromethyl-5H-indeno[1,2-b]pyridin-3-yloxy)-ethyl]-pyrrolidin-2-one] | < 100 nM | 64 nM | 
COCOCCN1C(=O)CCC1COc1ccc2c(c1)C(O)(C(F)(F)F)c1ccccc1-2 (stereo not drawn) [compound 431] | 100 to 1000 nM | 250 nM | 
O=C1CCC(COc2ccc3c(c2)C(O)(C(F)(F)F)c2ccccc2-3)N1CCO (stereo not drawn) [compound 432] | 100 to 1000 nM | 247 nM | 
Cn1cc(-c2cc(OCC(=O)O)cc3c2-c2ccccc2C3(O)C(F)(F)F)cn1 (stereo not drawn) [compound 433] | 100 to 1000 nM | 388 nM | 

SMILES | IC50 [1] | IC50 [2] | IC50 (class symbol of IC50, read-out: PDHK inhibitory activity)
NC(=O)COc1cnc2c(c1)C(O)(C(F)(F)F)c1ccccc1-2 (stereo not drawn) [compound 434] | 100 to 1000 nM | 561 nM | 
CC(=O)NCCOc1cc(-c2cnn(C)c2)c2c(c1)C(O)(C(F)(F)F)c1ccccc1-2 (stereo not drawn) [compound 435] | < 100 nM | 39 nM | 
OCCCn1cc(-c2cccc3c2-c2ccccc2C3(O)C(F)(F)F)cn1 (stereo not drawn) [compound 436] | < 100 nM | 65 nM | 
O=C(COc1cc(Br)c2c(c1)C(O)(C(F)(F)F)c1ccccc1-2)N1CCC1 (stereo not drawn) [compound 437] | < 100 nM | 60 nM | 
CNC(=O)COc1cc(Br)c2c(c1)C(O)(C(F)(F)F)c1ccccc1-2 (stereo not drawn) [compound 438] | 100 to 1000 nM | 112 nM | 
Cn1cc(-c2cc(OCC(=O)N3CC(CO)C3)cc3c2-c2ccccc2C3(O)C(F)(F)F)cn1 (stereo not drawn) [compound 439] | < 100 nM | 34 nM | 
Cn1cc(-c2cc(OCC(=O)N3CCC(CO)CC3)cc3c2-c2ccccc2C3(O)C(F)(F)F)cn1 (stereo not drawn) [compound 440] | < 100 nM | 32 nM | 
Cn1cc(-c2cc(OCC(=O)N3CCC3)cc3c2-c2ccccc2C3(O)C(F)(F)F)cn1 (stereo not drawn) [compound 441] | < 100 nM | 36 nM | 
CNC(=O)COc1cc(-c2cnn(C)c2)c2c(c1)C(O)(C(F)(F)F)c1ccccc1-2 (stereo not drawn) [compound 442] | < 100 nM | 40 nM | 
CC(=O)N(CCOc1ccc2c(c1)C(O)(C(F)(F)F)c1ccccc1-2)CCC(=O)O (stereo not drawn) [compound 443] | > 1000 nM | 1150 nM | 
CN(CCOc1ccc2c(c1)C(O)(C(F)(F)F)c1ccccc1-2)CC(=O)O (stereo not drawn) [compound 444] | > 1000 nM | 3930 nM | 
O=C1CC[C@H](COc2ccc3c(c2)C(O)(C(F)(F)F)c2ccccc2-3)N1 (stereo partly drawn) [compound 445] | 100 to 1000 nM | 605 nM | 
O=C1CC[C@@H](COc2ccc3c(c2)C(O)(C(F)(F)F)c2ccccc2-3)N1 (stereo partly drawn) [compound 446] | 100 to 1000 nM | 565 nM | 
CN1C(=O)CC[C@@H]1COc1ccc2c(c1)C(O)(C(F)(F)F)c1ccccc1-2 (stereo partly drawn) [compound 447] | 100 to 1000 nM | 202 nM | 
CN1C(=O)CC[C@H]1COc1ccc2c(c1)C(O)(C(F)(F)F)c1ccccc1-2 (stereo partly drawn) [compound 448] | 100 to 1000 nM | 381 nM | 
Cn1cc(-c2cc(OCCCC(=O)O)cc3c2-c2ccccc2C3(O)C(F)(F)F)cn1 (stereo not drawn) [compound 449] | < 100 nM | 47 nM | 
O=C1CCC(CO)N1CCOc1ccc2c(c1)C(O)(C(F)(F)F)c1ccccc1-2 (stereo not drawn) [compound 450] | 100 to 1000 nM | 442 nM | 
Cn1cc(-c2cc(OCCCO)cc3c2-c2ccccc2C3(O)C(F)(F)F)cn1 (stereo not drawn) [compound 453] | < 100 nM | 28 nM | 
Cn1cc(-c2cc(OCCC(=O)O)cc3c2-c2ccccc2C3(O)C(F)(F)F)cn1 (stereo not drawn) [compound 454] | < 100 nM | 64 nM | 
CN(C)C(=O)CCOc1cc(-c2cnn(C)c2)c2c(c1)C(O)(C(F)(F)F)c1ccccc1-2 (stereo not drawn) [compound 455] | < 100 nM | 26 nM | 
Cn1cc(-c2cc(OCCO)cc3c2-c2ccccc2C3(O)C(F)(F)F)cn1 (stereo not drawn) [compound 456] | < 100 nM | 45 nM | 
CN(C)C(=O)COc1cc(-c2cnn(C)c2)c2c(c1)C(O)(C(F)(F)F)c1ccccc1-2 (stereo not drawn) [compound 457] | < 100 nM | 30 nM | 

SMILES | IC50 [1] | IC50 [2] | IC50 (class symbol of IC50, read-out: PDHK inhibitory activity)
COc1cc(-c2cnn(CCO)c2)c2c(c1)C(O)(C(F)(F)F)c1ccccc1-2 (stereo not drawn) [compound 458] | < 100 nM | 39 nM | 
O=C1OCCN1CCOc1ccc2c(c1)C(O)(C(F)(F)F)c1ccccc1-2 (stereo not drawn) [compound 459] | 100 to 1000 nM | 185 nM | 
OCCn1cc(-c2cc(Cl)cc3c2-c2ccccc2C3(O)C(F)(F)F)cn1 (stereo not drawn) [compound 460] | < 100 nM | 30 nM | 
O=C(c1cc(-c2cnn(CCO)c2)c2c(c1)C(O)(C(F)(F)F)c1ccccc1-2)N1CCC1 (stereo not drawn) [compound 461] | < 100 nM | 30 nM | 
CN(CC(=O)O)C(=O)COc1ccc2c(c1)C(O)(C(F)(F)F)c1ccccc1-2 (stereo not drawn) [compound 462] | > 1000 nM | 5980 nM | 
COc1cc(-c2cnn(C)c2)c2c(c1)C(O)(C(F)(F)F)c1ccccc1-2 (stereo not drawn) [compound 463] | < 100 nM | 47 nM | 
Cn1cc(-c2cc(OCCNC(=O)CCC(=O)C(F)(F)F)cc3c2-c2ccccc2C3(O)C(F)(F)F)cn1 (stereo not drawn) [compound 464] | < 100 nM | 42 nM | 
CC(C)n1cc(-c2cccc3c2-c2ccccc2C3(O)C(F)(F)F)cn1 (stereo not drawn) [compound 465] | < 100 nM | 61 nM | 
OC1(C(F)(F)F)c2ccccc2-c2c(-c3cnn(Cc4ccccc4)c3)cccc21 (stereo not drawn) [compound 466] | < 100 nM | 55 nM | 
O=S1(=O)CCCN1CCOc1ccc2c(c1)C(O)(C(F)(F)F)c1ccccc1-2 (stereo not drawn) [compound 468] | 100 to 1000 nM | 327 nM | 
O=C1NCCN1CCOc1ccc2c(c1)C(O)(C(F)(F)F)c1ccccc1-2 (stereo not drawn) [compound 469] | 100 to 1000 nM | 193 nM | 
O=C1OCCCN1CCOc1ccc2c(c1)C(O)(C(F)(F)F)c1ccccc1-2 (stereo not drawn) [compound 470] | 100 to 1000 nM | 168 nM | 
CN(CCOc1cc(-c2cnn(C)c2)c2c(c1)C(O)(C(F)(F)F)c1ccccc1-2)C(=O)C(C)(C)C (stereo not drawn) [compound 471] | < 100 nM | 26 nM | 
COC(=O)c1cc(Br)c2c(c1)C(O)(C(F)(F)F)c1ccccc1-2 (stereo not drawn) [compound 472] | 100 to 1000 nM | 184 nM | 
O=C(c1cc(-c2cnn(CCO)c2)c2c(c1)C(O)(C(F)(F)F)c1ccccc1-2)N1CCCC1 (stereo not drawn) [compound 476] | < 100 nM | 53 nM | 
O=C(O)CCCOc1cc(Cl)c2c(c1)C(O)(C(F)(F)F)c1ccccc1-2 (stereo not drawn) [compound 478] | 100 to 1000 nM | 433 nM | 
COC(=O)COc1cc(Cl)c2c(c1)C(O)(C(F)(F)F)c1ccccc1-2 (stereo not drawn) [compound 480] | 100 to 1000 nM | 553 nM | 
O=C(O)CCCOc1cc(-c2cnn(CCO)c2)c2c(c1)C(O)(C(F)(F)F)c1ccccc1-2 (stereo not drawn) [compound 482] | < 100 nM | 40 nM | 
O=C(O)Cn1cc(-c2cccc3c2-c2ccccc2C3(O)C(F)(F)F)cn1 (stereo not drawn) [compound 483] | 100 to 1000 nM | 542 nM | 
O=C1CCCN1CCOc1cc(-c2cnn(CCO)c2)c2c(c1)C(O)(C(F)(F)F)c1ccccc1-2 (stereo not drawn) [compound 484] | < 100 nM | 24 nM | 
O=C(O)CCn1cc(-c2cccc3c2-c2ccccc2C3(O)C(F)(F)F)cn1 (stereo not drawn) [compound 485] | 100 to 1000 nM | 117 nM | 
NC(=O)CCn1cc(-c2cccc3c2-c2ccccc2C3(O)C(F)(F)F)cn1 (stereo not drawn) [compound 486] | < 100 nM | 55 nM | 
